Read-outs that look alike come from different tables or passages of the source.
What was measured:
[1] = Metabolic stability in pooled human liver microsomes; type: in vitro ADME; conditions: human, pooled human liver microsomes, pooled human liver microsomes 0.5 mg/mL, 1 μM test compound, 37° C., * rows = mean of two runs
Summary of the method: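 Pooled human liver microsomes (0.5 mg/mL in PBS) preincubated ±1 mM NADPH at 37° C; test compound added at 10 min to 1 μM final. Samples at 0, 5, 15 and 60 min quenched in acetonitrile, parent quantified by LC-MS/MS against a standard curve (terfenadine internal standard). Initial metabolic rate calculated with and without NADPH.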

[2] = target: T1, human recombinant AT2 receptor (Homo sapiens, UniProt P50052); assay: Binding to AT2 receptor, radiometric scintillation assay (Eurofins ITEM26); conditions: ligand 125I CGP 42112A, * rows = mean of runs; for Ki: seven-point dose-response curve; for IC50: test compounds at 1, 10, 100 and 1000 nM, read-out: AT2 GraFit IC50
T1 construct: purchased Eurofins ITEM26 (protocol number)
T1 sequence (P50052 1-363): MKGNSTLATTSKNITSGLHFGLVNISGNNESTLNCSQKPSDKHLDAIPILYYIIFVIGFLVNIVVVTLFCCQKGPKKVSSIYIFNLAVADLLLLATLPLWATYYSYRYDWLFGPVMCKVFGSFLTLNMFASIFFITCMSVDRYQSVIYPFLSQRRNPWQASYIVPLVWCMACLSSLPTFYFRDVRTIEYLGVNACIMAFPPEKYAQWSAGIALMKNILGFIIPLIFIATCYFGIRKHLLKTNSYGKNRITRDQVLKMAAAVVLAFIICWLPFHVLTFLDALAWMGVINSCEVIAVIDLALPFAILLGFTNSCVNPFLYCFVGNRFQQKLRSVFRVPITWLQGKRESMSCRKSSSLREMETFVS

[3] = target: T2, human recombinant AT1 receptor (Homo sapiens, UniProt P30556); assay: Binding to AT1 receptor, radiometric scintillation assay (Eurofins ITEM24); conditions: test compounds at 1 and 10 μM, ligand 125I(sar1,Ile8)-AT-II; * rows = mean of runs
T2 construct: purchased Eurofins ITEM24 (protocol number)
T2 sequence (P30556 1-359): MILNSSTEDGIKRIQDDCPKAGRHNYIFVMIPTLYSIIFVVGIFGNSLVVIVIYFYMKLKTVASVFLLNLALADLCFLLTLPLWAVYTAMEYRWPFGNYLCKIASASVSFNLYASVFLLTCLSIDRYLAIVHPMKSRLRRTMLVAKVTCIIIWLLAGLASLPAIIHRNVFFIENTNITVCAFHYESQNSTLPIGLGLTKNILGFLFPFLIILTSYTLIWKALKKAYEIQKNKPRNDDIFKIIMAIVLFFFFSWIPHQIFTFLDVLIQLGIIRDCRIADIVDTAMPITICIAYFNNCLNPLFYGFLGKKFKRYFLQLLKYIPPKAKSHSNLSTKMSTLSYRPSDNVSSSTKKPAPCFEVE

CYP1A2 = target: T3, CYP1A2 (Homo sapiens, UniProt P05177); assay: in vitro; type: in vitro ADME; conditions: human, microsomes, human liver microsomes, substrate phenacetin, read-out: CYP1A2 Inh %
T3 construct: isoform-specific substrates incubated with human liver microsomes; tissue Eurofins ITEMG232 (protocol number); host or cells: human liver microsomes
Experimental: The following substrates were used; CYP1A phenacetin, CYP2B36 bupropion, CYP2C8 paclitaxel and amodiaquine, CYP2C9 diclofenac, CYP2C19 omeprazole, CYP2D6 dextromethorphan, CYP3A midazolam and testosterone.
At the end of the incubation, the formation of metabolite was monitored by HPLC-MS/MS as the peak area response.

CYP2B6 = target: T4, CYP2B6 (Homo sapiens, UniProt P20813); assay: CYP inhibition in human liver microsomes (Eurofins ITEMG232); type: in vitro ADME; conditions: probe bupropion, substrate bupropion, read-out: CYP2B6 Inh %
T4 construct: isoform-specific substrates incubated with human liver microsomes; tissue Eurofins ITEMG232 (protocol number); host or cells: human liver microsomes
T4 sequence (P20813 1-491): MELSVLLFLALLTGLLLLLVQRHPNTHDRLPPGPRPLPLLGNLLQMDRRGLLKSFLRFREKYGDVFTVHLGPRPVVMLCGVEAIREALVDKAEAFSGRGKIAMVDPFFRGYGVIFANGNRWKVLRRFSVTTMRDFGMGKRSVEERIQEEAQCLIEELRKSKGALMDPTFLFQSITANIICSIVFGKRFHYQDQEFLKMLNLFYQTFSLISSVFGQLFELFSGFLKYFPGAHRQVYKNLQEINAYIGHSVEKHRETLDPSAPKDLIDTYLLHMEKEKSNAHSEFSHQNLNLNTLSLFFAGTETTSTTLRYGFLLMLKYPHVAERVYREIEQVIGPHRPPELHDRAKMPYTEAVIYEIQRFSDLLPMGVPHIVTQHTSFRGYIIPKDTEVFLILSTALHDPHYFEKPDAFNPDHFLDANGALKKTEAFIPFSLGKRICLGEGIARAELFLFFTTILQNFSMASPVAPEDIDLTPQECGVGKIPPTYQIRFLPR

CYP2C19 = target: T5, CYP2C19 (Homo sapiens, UniProt P33261); assay: as above; type: in vitro ADME; conditions: human, probe omeprazole, substrate omeprazole, read-out: CYP2C19 Inh %
T5 construct: isoform-specific substrates incubated with human liver microsomes; tissue Eurofins ITEMG232 (protocol number); host or cells: human liver microsomes

CYP2C8 = target: T6, CYP2C8 (Homo sapiens, UniProt P10632); assay: as above; type: in vitro ADME; conditions: human, probe paclitaxel and amodiaquine, substrate paclitaxel and amodiaquine, read-out: CYP2C8 Inh %
T6 construct: isoform-specific substrates incubated with human liver microsomes; tissue Eurofins ITEMG232 (protocol number); host or cells: human liver microsomes
T6 sequence (P10632 1-490): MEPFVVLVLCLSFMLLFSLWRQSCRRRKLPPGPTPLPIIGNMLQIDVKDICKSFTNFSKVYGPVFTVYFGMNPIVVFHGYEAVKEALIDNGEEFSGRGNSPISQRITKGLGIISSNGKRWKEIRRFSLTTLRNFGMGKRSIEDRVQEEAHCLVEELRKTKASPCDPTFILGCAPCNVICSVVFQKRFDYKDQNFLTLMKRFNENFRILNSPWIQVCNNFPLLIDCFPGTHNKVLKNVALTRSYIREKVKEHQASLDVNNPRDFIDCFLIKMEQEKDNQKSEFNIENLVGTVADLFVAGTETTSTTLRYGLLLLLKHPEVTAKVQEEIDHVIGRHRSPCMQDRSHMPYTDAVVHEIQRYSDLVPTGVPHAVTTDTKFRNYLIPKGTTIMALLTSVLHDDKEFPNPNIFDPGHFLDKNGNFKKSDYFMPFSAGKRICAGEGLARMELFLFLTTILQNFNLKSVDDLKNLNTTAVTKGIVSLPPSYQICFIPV

CYP2D6 = target: T7, CYP2D6 (Homo sapiens, UniProt P10635); assay: as above; type: in vitro ADME; conditions: probe dextromethorphan, substrate dextromethorphan, read-out: CYP2D6 Inh %
T7 construct: isoform-specific substrates incubated with human liver microsomes; tissue Eurofins ITEMG232 (protocol number); host or cells: human liver microsomes

CYP3A4&5 = assay: in vitro; conditions: human, human liver microsomes, probe testosterone;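 further: Read-out is the metabolite generated from the probe substrate, quantified as HPLC-MS/MS peak area once incubation ends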
CYP2C9 [4] = target: T8, CYP2C9 (Homo sapiens, UniProt P11712); assay: CYP inhibition in human liver microsomes (Eurofins ITEMG232); type: in vitro ADME; parameters: isoform-specific substrates incubated with human liver microsomes; tissue Eurofins ITEMG232 (protocol number); host or cells: human liver microsomes; conditions: human, probe diclofenac, substrate diclofenac, read-out: CYP2C9 Inh %
CYP3A4 [5] = target: T9, CYP3A4 (Homo sapiens, UniProt P08684); assay: CYP inhibition in human liver microsomes (Eurofins ITEMG232), midazolam substrate; type: in vitro ADME; parameters: isoform-specific substrates incubated with human liver microsomes; tissue Eurofins ITEMG232 (protocol number); host or cells: human liver microsomes; conditions: human, probe midazolam, read-out: CYP3A4 midazolam Inh %
CYP2C9 [6] = target: T8, CYP2C9; assay: CYP inhibition of C21 found during development; type: in vitro ADME; conditions: statement in background
CYP3A4 [7] = target: T9, CYP3A4; assay: CYP inhibition of C21 found during development; type: in vitro ADME; conditions: statement in background
[8] = Metabolic hydrolysis of C21 found during development; type: in vitro ADME; conditions: statement in background
[9] = with 1 mM NADPH, read-out: T1/2, + NaDPH
[10] = without NADPH, read-out: T1/2, no NaDPH

T9 sequence (P08684 whole entry, canonical isoform): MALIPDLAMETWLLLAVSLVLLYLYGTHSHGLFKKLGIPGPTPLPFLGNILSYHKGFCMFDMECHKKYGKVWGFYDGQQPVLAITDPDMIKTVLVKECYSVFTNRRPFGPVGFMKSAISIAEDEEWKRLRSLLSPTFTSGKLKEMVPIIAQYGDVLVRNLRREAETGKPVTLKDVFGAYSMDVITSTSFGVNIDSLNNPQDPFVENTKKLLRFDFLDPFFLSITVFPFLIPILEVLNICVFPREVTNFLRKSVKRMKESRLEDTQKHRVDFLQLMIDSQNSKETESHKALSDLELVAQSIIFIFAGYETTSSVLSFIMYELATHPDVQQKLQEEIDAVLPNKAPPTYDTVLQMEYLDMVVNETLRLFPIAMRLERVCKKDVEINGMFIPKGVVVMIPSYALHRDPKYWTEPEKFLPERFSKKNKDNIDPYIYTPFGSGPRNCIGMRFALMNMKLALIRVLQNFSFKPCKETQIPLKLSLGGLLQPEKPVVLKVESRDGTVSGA
T8 sequence (P11712 whole entry, canonical isoform): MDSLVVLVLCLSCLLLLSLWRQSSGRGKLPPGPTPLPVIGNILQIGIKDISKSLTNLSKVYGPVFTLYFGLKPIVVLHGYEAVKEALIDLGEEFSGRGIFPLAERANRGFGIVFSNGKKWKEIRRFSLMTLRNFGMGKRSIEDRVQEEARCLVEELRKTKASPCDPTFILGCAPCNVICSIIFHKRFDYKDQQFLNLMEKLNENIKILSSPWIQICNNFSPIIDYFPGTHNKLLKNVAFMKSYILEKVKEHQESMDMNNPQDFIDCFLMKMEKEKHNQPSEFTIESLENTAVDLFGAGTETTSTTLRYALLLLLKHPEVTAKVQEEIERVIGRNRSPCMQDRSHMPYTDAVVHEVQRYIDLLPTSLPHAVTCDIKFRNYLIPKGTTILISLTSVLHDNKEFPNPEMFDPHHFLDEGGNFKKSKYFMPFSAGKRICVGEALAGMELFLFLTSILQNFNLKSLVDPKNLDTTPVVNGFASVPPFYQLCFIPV
T7 sequence (P10635 whole entry, canonical isoform): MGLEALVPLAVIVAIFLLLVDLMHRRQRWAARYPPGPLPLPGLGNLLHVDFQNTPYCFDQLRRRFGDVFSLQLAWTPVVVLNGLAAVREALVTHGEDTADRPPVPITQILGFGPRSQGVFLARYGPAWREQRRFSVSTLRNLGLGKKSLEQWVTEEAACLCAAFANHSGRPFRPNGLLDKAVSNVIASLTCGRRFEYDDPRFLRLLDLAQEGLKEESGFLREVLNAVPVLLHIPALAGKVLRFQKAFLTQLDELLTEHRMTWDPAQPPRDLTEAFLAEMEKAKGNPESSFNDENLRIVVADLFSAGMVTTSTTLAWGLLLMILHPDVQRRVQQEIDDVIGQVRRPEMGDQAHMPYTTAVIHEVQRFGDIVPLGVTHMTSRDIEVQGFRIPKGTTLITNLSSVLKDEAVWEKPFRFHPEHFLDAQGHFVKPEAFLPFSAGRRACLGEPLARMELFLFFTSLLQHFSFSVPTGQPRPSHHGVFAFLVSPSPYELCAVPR
T5 sequence (P33261 whole entry, canonical isoform): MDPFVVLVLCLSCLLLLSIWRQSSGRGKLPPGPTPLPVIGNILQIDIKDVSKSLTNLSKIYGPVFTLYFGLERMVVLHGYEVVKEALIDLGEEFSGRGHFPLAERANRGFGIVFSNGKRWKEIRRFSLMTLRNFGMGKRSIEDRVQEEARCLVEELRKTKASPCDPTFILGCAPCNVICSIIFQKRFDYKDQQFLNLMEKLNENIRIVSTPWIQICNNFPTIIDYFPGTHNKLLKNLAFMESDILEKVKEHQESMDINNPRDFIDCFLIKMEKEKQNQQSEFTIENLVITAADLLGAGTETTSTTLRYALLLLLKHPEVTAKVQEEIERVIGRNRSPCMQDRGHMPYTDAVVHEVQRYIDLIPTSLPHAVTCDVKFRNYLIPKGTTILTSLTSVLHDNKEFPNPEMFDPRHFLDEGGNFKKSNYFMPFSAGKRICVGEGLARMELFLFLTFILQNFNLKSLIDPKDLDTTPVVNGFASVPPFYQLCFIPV
T3 sequence (P05177 whole entry, canonical isoform): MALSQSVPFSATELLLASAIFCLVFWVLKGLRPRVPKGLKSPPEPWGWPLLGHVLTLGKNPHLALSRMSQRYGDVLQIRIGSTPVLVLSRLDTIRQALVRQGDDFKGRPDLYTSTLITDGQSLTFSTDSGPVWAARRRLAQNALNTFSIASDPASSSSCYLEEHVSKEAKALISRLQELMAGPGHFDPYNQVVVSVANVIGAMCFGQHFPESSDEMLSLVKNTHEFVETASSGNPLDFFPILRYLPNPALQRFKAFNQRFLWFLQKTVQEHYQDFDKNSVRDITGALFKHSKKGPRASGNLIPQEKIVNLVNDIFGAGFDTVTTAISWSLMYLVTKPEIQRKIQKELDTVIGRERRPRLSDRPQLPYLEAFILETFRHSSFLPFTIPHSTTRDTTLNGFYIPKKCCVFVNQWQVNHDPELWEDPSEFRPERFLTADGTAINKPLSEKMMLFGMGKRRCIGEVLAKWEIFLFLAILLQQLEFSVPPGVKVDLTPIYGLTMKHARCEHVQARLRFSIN

half-life at 1 μM [1, 9] [min]	half-life at 1 μM [1, 10] [min]	Ki [2] [µM]	IC50 [2] [µM]	IC50 [3] [µM]	inhibition at 10 µM (CYP1A2) [%]	inhibition at 10 µM (CYP2B6) [%]	inhibition at 10 µM (CYP2C19) [%]	inhibition at 10 µM (CYP2C8) [%]	inhibition at 10 µM (CYP2D6) [%]	inhibition at 10 µM (CYP3A4&5) [%]	inhibition at 10 µM (CYP2C9 [4]) [%]	inhibition at 10 µM (CYP3A4 [5]) [%]	inhibition of CYP 2C9 (CYP2C9 [6])	inhibition of CYP 3A4 (CYP3A4 [7])	SMILES	metabolic hydrolysis [8]
8	> 60	0.071	0.142	58.7	-1.1	20.5	85.7	58.1	4	97	94.7	98.2			COc1ncncc1NS(=O)(=O)c1ccc(CC(C)C)cc1-c1ccc(Cn2ccnc2C(C)(C)C)c(F)c1 [Example 22, 4′-((2-(tert-Butyl)-1H-imidazol-1-yl)methyl)-3′-fluoro-5-isobutyl-N-(4-methoxy-pyrimidin-5-yl)-[1,1′-biphenyl]-2-sulfonamide]	
33	> 60	0.00072	0.00145	1.1	-19.4	26.9	57	59.6	1.1	47.5	52.7	36			Cc1nc(NS(=O)(=O)c2ccc(CC(C)C)cc2-c2ccc(Cn3ccnc3C(C)(C)C)c(F)c2)oc1C [Example 24, 4′-((2-(tert-Butyl)-1H-imidazol-1-yl)methyl)-N-(4,5-dimethyloxazol-2-yl)-3′-fluoro-5-isobutyl-[1,1′-biphenyl]-2-sulfonamide]	
60	> 60	0.0005	0.00101	0.125	60.2	38.4	95.7	62.4	50.9	92.2	98	94			CC(C)Cc1ccc(S(=O)(=O)Nc2ncccn2)c(-c2ccc(Cn3ccnc3)c(F)c2)c1 [Example 30, 4′-((1H-Imidazol-1-yl)methyl)-3′-fluoro-5-isobutyl-N-(pyrimidin-2-yl)-[1,1′-biphenyl]-2-sulfonamide]	
	30									94			potent inhibitor	potent inhibitor	CCCCOC(=O)NS(=O)(=O)c1sc(CC(C)C)cc1-c1ccc(Cn2ccnc2)cc1 [Example C21, N-butyloxycarbonyl-3-(4-imidazol-1-ylmethylphenyl)-5-isobutylthiophene-2-sulfon-amide]	rapidly hydrolysed to an inactive sulfonamide metabolite

— patent US12441718B2, “Selective angiotensin II compounds” (VICORE PHARMA AB, priority 2021, dated 2025)
